# Measurements from patent US11040937B2, “Amide derivative” (TOHOKU UNIVERSITY, priority 2014, dated 2021).
# pEC50, pIC50: −log10 of the molar value. Where two headings read alike, the source gives them in different places.
# Experiments:
# A549/OPNluc cells = experiment: WST assay for cell growth / cell viability; assay type: cell-based, human; details: Homo sapiens, A549, A549/OPNluc cells, 48±4 hours, WST-1; read-out: IC50 (concentration for 50% inhibition of cell growth)
# From the text: (§1) A reporter vector pOPN1-luc obtained by the insertion of a human OPN promoter sequence (−765 to 23) into the multiple cloning site of pGL-3 basic vector (Promega) expresses luciferase when transfected into animal cells. The pOPN1-luc was transfected into a human non-small cell lung cancer-derived cell line A549 together with pPUR (Clontech) that expresses a puromycin resistance gene (puromycin-N-acetyl-transferase gene), and then cells expressing luciferase which could grow a puromycin-supplemented medium were selected. The selected cells were named “A549/OPNluc cells” and used for observation of luciferase expression inhibitory effect under control of OPN promoter, as described below.
# (§2) A test compound was added to a culture containing A549/OPNluc cells to observe its influence on the amount of luciferase expressed in the cells. Here, it can be considered that when the test compound has a cell cytotoxity or cell growth inhibitory effect, the total expression level of luciferase is reduced due to a reduction in the number of living cells that depends on the concentration of the test compound, and therefore the luciferase expression inhibitory effect of the test compound under control of OPN promoter cannot be properly evaluated. For this reason, WST assay for quantification of cell proliferation ability or cell viability by colorimetric measurement was firstly performed to determine IC50 (concentration for 50% inhibition of cell growth) of the test compound for cell growth. Then, luciferase activity measurement was performed to determine EC50 (concentration for 50% inhibition of luciferase expression) of the test compound for luciferase expression under control of OPN promoter.
# A549/OPNluc cells were suspended in DMEM medium containing 10% fetal calf serum (FCS) and 1% penicillin/streptomycin (P/S) at 3×10^4 cells/mL to obtain a cell suspension, and then the cell suspension was dispensed into each well of a 96-well plate in an amount of 100 μL. In order to perform the assay in triplicate, wells were prepared for a control group, and 3 wells were prepared for each test compound-treated group at each concentration. After the dispensation, the 96-well plate was incubated in a CO2 incubator (at 37° C. and 5% CO2) for 24±4 hours.
# The present compound was dissolved in dimethylsulfoxide (DMSO) to obtain a 50 mmol/L solution, and the compound solution was stored at −80° C. The compound solution was diluted with DMSO in 2-fold dilution series (usually, in the range of 0.31 mmol/L to 20 mmol/L) to prepare test compound solutions whose concentration varied by two fold for WST assay.
# Each solution of only DMSO (control) and the diluted test compound (sample) was dispensed into each well containing the cell suspension in an amount of 0.5 μL (200-fold dilution). The solution in each well was mixed with a vortex mixer, and then the 96-well plate was incubated in a CO2 incubator (at 37° C. and 5% CO2) for 48±4 hours. Then, Premix WST-1 Reagent (TAKARA BIO INC.) was added in an amount of 10 μL to each well. The solution in each well was mixed with a vortex mixer, and then the 96-well plate was incubated at 37° C. and 5% CO2. After 60 minutes or 120 minutes, the absorbance values (450 nm) were measured with a microplate reader (Bio-Rad; Benchmark or Thermo Scientific; Varioskan Flash).
# The absorbance values of the control wells and the sample wells at each concentration were input into an Excel file to determine the percentages of absorbance values of the sample wells at each concentration with to the average absorbance value of the control wells. From the determined values, a fitted curve was determined by the method of least squares to calculate IC50.
# [1] = test system: human OPN promoter (pOPN1-luc) in A549/OPNluc cells; experiment: Luciferase assay: luciferase expression under control of OPN promoter; assay type: cell-based; details: Homo sapiens
# From the text: as §1, §2
# The same steps as in the above-mentioned WST assay were performed in which each solution of only DMSO (control) or the diluted test compound (sample) was added in an amount of 0.5 μL to each well containing the cell suspension to achieve 200-fold dilution, and the solution in each well was mixed with a vortex mixer, and the 96-well plate was incubated in a CO2 incubator (at 37° C. and 5% CO2) for 48±4 hours.
# Luciferase Assay Substrate (hereinafter referred to as “LAS”) supplied in Luciferase Assay Systems (Promega: Cat #E1500) was dissolved in Luciferase Assay Buffer (LAB) to prepare a luciferase reagent. 5×Cell Culture Lysis Reagent (hereinafter referred to as “CCLR”) was diluted by 5 times with water to prepare 1×CCLR.
# After the incubation for 48±4 hours, the medium in each well was completely removed, and 1×CCLR was dispensed into each well in an amount of 50 μL. The 96-well plate was allowed to stand at room temperature for 30 minutes, and then 1×CCLR in each well was used as an assay sample. The luciferase reagent (100 μL) was placed in a tube for chemiluminescence measurement, and the assay sample (20 μL) was added to the tube and mixed with the luciferase reagent to measure chemiluminescence (Relative Luminescence Intensity: RLU) using TB 20/20 (Promega) or GloMax 20/20 (Promega).
# The RLU values of the control wells and the sample wells at each concentration were input into an Excel file, and the percentages of RLU values of the sample wells at each concentration to the average RLU value of the control wells were determined. From these values, a fitted curve was determined by the method of least squares to calculate EC50. Also, the percentages of RLU values of the sample wells at each concentration to the average RLU value of the control wells were divided by the percentages of absorbance values of the compounds in WST assay at the same concentrations as those of this assay (to the control), and a fitted curve was determined from the calculated values by the method of least squares to calculate corrected EC50.
# [2] = A549, A549/OPNluc cells, 48±4 hours, read-out: EC50 (concentration for 50% inhibition of luciferase expression)
# [3] = A549, EC50 corrected for decrease in viable cells (RLU % divided by WST %), read-out: corrected EC50
Structure (SMILES),pIC50 (A549/OPNluc cells),"pEC50 [1, 2]","pEC50 [1, 3]"
"O=C(CCNC(=O)c1ccc(O)cc1)Nc1cccc(Oc2ccc(Cl)c(Cl)c2)c1 [Compound 38, N-(3-(3-(3,4-dichlorophenoxy)phenylamino)-3-oxopropyl)-4-hydroxybenzamide]",4.76,5.34,5.12
"Nc1ccc(C(=O)NCCC(=O)c2cccc(Oc3ccc(Cl)cc3)c2N)cc1 [Compound 19, N-(3-(2-Amino-3-(4-chlorophenoxy)phenyl)-3-oxopropyl)-4-aminobenzamide]",< 4.00,5.17,5.11
"COc1ccc(Oc2cccc(NC(=O)CCNC(=O)c3ccc(O)cc3)c2)cc1 [Compound 26, N-(3-(3-(4-Methoxyphenoxy)phenylamino)-3-oxopropyl)-4-hydroxybenzamide]",4.06,4.69,4.57
"COc1ccc(Oc2cccc(C(=O)CCNC(=O)c3ccc(O)cc3)c2N)cc1 [Compound 6, N-(3-(2-Amino-3-(4-methoxyphenoxy)phenyl)-3-oxopropyl)-4-hydroxybenzamide]",4.18,5.05,4.99
